Assay [1] deals with T1, firefly luciferase (FLuc) (Photinus pyralis, UniProt P08659).
T1 construct: host or cells: AR-EcoScreen (Chinese hamster ovary derived), lysate after dihydrotestosterone induction
The assay is described as follows: Cell-lysate (AR-EcoScreen) in vitro firefly luciferase inhibition assay. The assay is classed as biochemical. As to conditions: for IC50 / FLuc inhibition (result in words): AR-EcoScreen cell lysate; for inhibition at 1 µM / inhibition at 10 µM / inhibition at 100 µM: read-out: inhibition of FLuc; for FLuc inhibition (result in words): screened at 1, 10, 100 µM. How it is done: (§1) Preparation of cell lysates for use in the luciferase inhibition assays was through seeding of 4–7 ×10^6 cells into a 150 cm^2 growth flask (an equivalent surface density to that indicated in OECD TG 458 [10]) for 24 h at 37 °C under 5% CO2. Upon incubation, dihydrotestosterone (Sigma-Aldrich, St. Louis, MO, USA) diluted in DMSO was added at 10 nM final concentration. This was followed by another 24-h incubation, removal of medium, and addition of 9.4 mL reporter lysis buffer (Promega, Madison, WI, USA). The growth flask was then stored at −80 °C until use.
The cell lysate was thawed at room temperature. Stock solutions of the isoflavonoids and positive controls were dissolved in DMSO and 10-fold serially diluted in the cell lysate to the final concentration with 1% DMSO. Twenty microliters of each isoflavonoid in the cell lysate were transferred to 96-well plates in triplicate and incubated for 30 min at room temperature. Then, 30 µL Luciferase Assay Reagent II (contained in the Dual-Luciferase Reporter Assay System; Promega, Madison, WI, USA) was added to each well, and the FLuc luminescence was measured using a microplate reader (Synergy 4 hybrid; BioTek, Winooski, VT, USA). The addition of 30 µL of Stop & Glo Reagent (contained in the Dual-Luciferase Reporter Assay System) followed, and the RLuc luminescence was recorded using the microplate reader (Synergy 4 hybrid; BioTek, Winooski, VT, USA).
The data from the in vitro luciferase inhibition assays in the AR-EcoScreen cell lysate were processed by first subtracting the background value (i.e., reporter lysis buffer alone) and then normalization to the vehicle control (1% DMSO), and are expressed as means ± standard deviation of three independent repeats carried out as technical triplicates. […] Statistical significance as compared to the vehicle control, considered: *, p ≤ 0.05; **, p ≤ 0.01; and ****, p ≤ 0.0001, using one-way ANOVA, followed by post-hoc Dunnett’s tests.

A further assay deals with RLuc. The settings on record: read-out: IC50 RLuc inhibition; in the presence of 10 µM coelenterazine; cited from earlier work.
Assay [2] has as its target T2, Renilla luciferase (RLuc) (Renilla reniformis, UniProt P27652).
T2 construct: host or cells: AR-EcoScreen (Chinese hamster ovary derived), lysate
T2 sequence (P27652 1-311): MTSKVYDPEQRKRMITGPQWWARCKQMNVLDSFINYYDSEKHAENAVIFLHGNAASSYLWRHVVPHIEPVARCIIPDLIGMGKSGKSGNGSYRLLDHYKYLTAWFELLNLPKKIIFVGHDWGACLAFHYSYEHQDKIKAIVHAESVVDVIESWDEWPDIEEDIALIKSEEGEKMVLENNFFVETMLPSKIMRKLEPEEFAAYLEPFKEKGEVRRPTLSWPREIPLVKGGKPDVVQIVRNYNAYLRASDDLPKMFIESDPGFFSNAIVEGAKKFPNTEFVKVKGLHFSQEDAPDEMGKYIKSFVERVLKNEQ
The assay is described as follows: Cell-lysate (AR-EcoScreen) in vitro Renilla luciferase inhibition assay. Type of assay: biochemical. The method, then: as §1
The cell lysate was thawed at room temperature. Stock solutions of the isoflavonoids and positive controls were dissolved in DMSO and 10-fold serially diluted in the cell lysate to the final concentration with 1% DMSO. […] Then, 30 µL Luciferase Assay Reagent II (contained in the Dual-Luciferase Reporter Assay System; Promega, Madison, WI, USA) was added to each well, and the FLuc luminescence was measured using a microplate reader (Synergy 4 hybrid; BioTek, Winooski, VT, USA). The addition of 30 µL of Stop & Glo Reagent (contained in the Dual-Luciferase Reporter Assay System) followed, and the RLuc luminescence was recorded using the microplate reader (Synergy 4 hybrid; BioTek, Winooski, VT, USA). […]

For a further assay, the system named is isolated FLuc. As to conditions: cited from earlier work.
[3] abbreviates: read-out: IC50 firefly luciferase inhibition.
[4] abbreviates: IC50 firefly luciferase inhibition.

“And” between values parts separate entries of the source, which are not always exact repeats. Equal values may be shown once. “Also recorded” adds a separate entry of the source. Read-outs that look alike come from different tables or passages of the source.

Data on 13 compounds can be found in article PMC8268740, “Evaluation of Firefly and Renilla Luciferase Inhibition in Reporter-Gene Assays: A Case of Isoflavonoids” (International Journal of Molecular Sciences, 2021).

What is called IC50 is the midpoint of a concentration-inhibition curve. One may read the inhibition as the share of the control response that was lost under treatment.

T1 sequence (P08659 whole entry): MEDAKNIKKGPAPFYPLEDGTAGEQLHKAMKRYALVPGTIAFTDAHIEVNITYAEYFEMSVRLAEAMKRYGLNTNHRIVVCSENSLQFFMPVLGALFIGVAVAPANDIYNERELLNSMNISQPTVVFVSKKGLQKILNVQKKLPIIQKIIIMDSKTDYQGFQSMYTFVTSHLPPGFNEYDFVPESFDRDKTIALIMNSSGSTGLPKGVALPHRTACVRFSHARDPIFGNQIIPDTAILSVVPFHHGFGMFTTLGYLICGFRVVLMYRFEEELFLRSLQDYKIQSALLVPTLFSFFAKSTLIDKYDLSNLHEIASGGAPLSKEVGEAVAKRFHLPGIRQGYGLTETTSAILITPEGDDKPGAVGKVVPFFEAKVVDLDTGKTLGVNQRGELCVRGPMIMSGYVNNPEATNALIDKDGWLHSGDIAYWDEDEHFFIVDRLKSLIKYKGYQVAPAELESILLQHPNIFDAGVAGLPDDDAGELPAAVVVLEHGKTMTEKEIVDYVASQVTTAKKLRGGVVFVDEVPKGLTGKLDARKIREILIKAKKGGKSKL

As to `COc1ccc(-c2coc3cc(O)cc(O)c3c2=O)cc1` [Biochanin A, biochanin A], in assay [1] (setting [3]), the IC50 was 0.636 µM and 0.64 µM. Moreover, the inhibition at 1 µM in assay [1] was 62.4%. For the compound `COc1ccc(-c2coc3cc(O)ccc3c2=O)cc1O` [Calycosin], in assay [1] (setting [4]), the IC50 was 4.96 µM. Moreover, in assay [1], the inhibition at 10 µM stood at 66.2%. In the case of `O=c1c(-c2ccc(O)cc2)coc2cc(O)ccc12` [Daidzein], the concentration for half-maximal inhibition (IC50) in assay [1] (setting [4]) was 51.4 µM. In addition, the inhibition at 100 µM in assay [1] came out at 60.9%.

`O=c1c(-c2ccc(O)cc2)coc2cc(O[C@@H]3O[C@H](CO)[C@@H](O)[C@H](O)[C@H]3O)ccc12` [Daidzin, daidzin]: in assay [1], the “FLuc inhibition (result in words)” value was “inactive; also recorded: did not show inhibition of FLuc at all”. As for `COc1ccc(-c2coc3cc(O)ccc3c2=O)cc1` [Formononetin, formononetin], in assay [1] (setting [3]), the IC50 turned out to be 3.88 µM. The inhibition at 1 µM in assay [1] was determined as 32.4%. Turning to `O=c1c(-c2ccc(O)cc2)coc2cc(O)cc(O)c12` [Genistein, genistein], the IC50 in assay [1] (setting [4]) turned out to be 36.9 µM. Also, the inhibition at 100 µM in assay [1] is 71.2%.

Turning to `O=c1c(-c2ccc(O)cc2)coc2cc(O[C@@H]3O[C@H](CO)[C@@H](O)[C@H](O)[C@H]3O)cc(O)c12` [Genistin, genistin], the “FLuc inhibition (result in words)” value in assay [1] was “inactive”; in assay [1] (listed as genistin), “did not show inhibition of FLuc at all”. Consider `COc1cc2c(=O)c(-c3ccc(O)cc3)coc2cc1O` [Glycitein], for which, in assay [1] (setting [4]), the IC50 worked out at 26.4 µM. Also, in assay [1], the inhibition at 10 µM amounted to 30.1%. For the compound `COc1cc2c(=O)c(-c3ccc(O)cc3)coc2cc1O[C@@H]1O[C@H](CO)[C@@H](O)[C@H](O)[C@H]1O` [Glycitin, glycitin], the “FLuc inhibition (result in words)” value in assay [1] was “inactive; also recorded: did not show inhibition of FLuc at all”. `O=S(=O)(NCCNC/C=C/c1ccc(Br)cc1)c1cccc2cnccc12` [H-89]: the IC50 was 10 µM in the assay on RLuc and 338 µM in assay [2]. Turning to `COc1cc(O)c2c(=O)c(-c3ccc(O)cc3)coc2c1` [Prunetin, prunetin], the IC50 in assay [1] (setting [4]) was 16.3 µM. In addition, the inhibition at 10 µM in assay [1] came to 40.7%. Take `Oc1ccc(/C=C/c2cc(O)cc(O)c2)cc1` [Resveratrol, resveratrol]: the IC50 in the assay on isolated FLuc is 2 µM. For the compound `Oc1ccc([C@H]2COc3cc(O)ccc3C2)cc1` [S-Equol, S-equol], the “FLuc inhibition (result in words)” value in assay [1] was “inactive; also recorded: did not show inhibition of FLuc at all”.
